Experimental data from patent US10035804B2, “Spirodiamine derivatives as aldosterone synthase inhibitors” (Hoffmann-La Roche Inc., priority 2014, dated 2018).

Tests used:
[1] = target: human CYP11B1 (Homo sapiens (Human), UniProt P15538); assay: G-402 cellular enzyme assay, human CYP11B1 (cortisol release); type: cell-based; conditions: G-402 cells expressing human CYP11B1; 1 μM Deoxycortisol; cortisol in supernatant after 16 h
Text: (§1) Herein we identified the use of the G-402 cell line as a host cell to ectopically express (transiently or stably) enzymes of the CYP11 family. Specifically we developed stable G-402 cells expressing ectopically human CYP11B1, human CYP11B2, human CYP11A1, cynmolgus CYP11B1 or cynomolgus CYP11B2 enzyme activity. Importantly the identified cell line G-402 expresses co-factors (adrenodoxin and adrenodoxin reductase) important for the activity of the CYP11 family and no relevant enzyme activity of the CYP11 family (in comparison to H295R cells) was detected in these cells. Therefore the G-402 cell line is uniquely suited as a host cell for the ectopic expression of enzymes from the CYP11 family.
(§2) G-402 cells can be obtained from ATCC (CRL-1440) and were originally derived from a renal leiomyoblastoma.
(§3) The expression plasmids contains the ORF for either human/cyno CYP11B1 or CYP11B2 under the control of a suitable promoter (CMV-promoter) and a suitable resistance marker (neomycin). Using standard techniques the expression plasmid is transfected into G-402 cells and these cells are then selected for expressing the given resistance markers. Individual cell-clones are then selected and assessed for displaying the desired enzymatic activity using 11-Deoxycorticosterone (Cyp11B2) or 11-Deoxycortisol (Cyp11B1) as a substrate.
(§4) G-402 cells expressing CYP11 constructs were established as described above and maintained in McCoy's 5a Medium Modified, ATCC Catalog No. 30-2007 containing 10% FCS and 400 μg/ml G418 (Geneticin) at 37° C. under an atmosphere of 5% CO2/95% air. Cellular enzyme assays were performed in DMEM/F12 medium containing 2.5% charcoal treated FCS and appropriate concentration of substrate (0.3-10 uM 11-Deoxycorticosterone, 11-Deoxycortisol or Corticosterone). For assaying enzymatic activity, cells were plated onto 96 well plates and incubated for 16 h. An aliquot of the supernatant is then transferred and analyzed for the concentration of the expected product (Aldosterone for CYP11B2; Cortisol for CYP11B1). The concentrations of these steroids can be determined using HTRF assays from CisBio analyzing either Aldosterone or Cortisol.
(§5) Inhibition of the release of produced steroids can be used as a measure of the respective enzyme inhibition by test compounds added during the cellular enzyme assay. The dose dependent inhibition of enzymatic activity by a compound is calculated by means of plotting added inhibitor concentrations (x-axes) vs. measured steroid/product level (y-axes). The inhibition is then calculated by fitting the following 4-parameter sigmoidal function (Morgan-Mercer-Flodin (MMF) model) to the raw data points using the least squares method:
(§6) [formula] wherein, A is the maximum y value, B is the EC50 factor determined using XLFit, C is the minimum y value and D is the slope value.
(§7) EC50 values for compounds claimed herein were tested with the G402-based assay system described. Cyp11B2 enzyme activity was tested in presence of 1 μM Deoxycorticosterone and variable amounts of inhibitors; Cyp11B1 enzyme activity was tested in presence of 1 μM Deoxycortisol and variable amounts of inhibitors.

[2] = target: human CYP11B2 (Homo sapiens (Human), UniProt P19099); assay: G-402 cellular enzyme assay, human CYP11B2 (aldosterone release); type: cell-based; conditions: G-402 cells expressing human CYP11B2; 1 μM Deoxycorticosterone; aldosterone in supernatant after 16 h
Sequence of human CYP11B2 (P19099 25-503): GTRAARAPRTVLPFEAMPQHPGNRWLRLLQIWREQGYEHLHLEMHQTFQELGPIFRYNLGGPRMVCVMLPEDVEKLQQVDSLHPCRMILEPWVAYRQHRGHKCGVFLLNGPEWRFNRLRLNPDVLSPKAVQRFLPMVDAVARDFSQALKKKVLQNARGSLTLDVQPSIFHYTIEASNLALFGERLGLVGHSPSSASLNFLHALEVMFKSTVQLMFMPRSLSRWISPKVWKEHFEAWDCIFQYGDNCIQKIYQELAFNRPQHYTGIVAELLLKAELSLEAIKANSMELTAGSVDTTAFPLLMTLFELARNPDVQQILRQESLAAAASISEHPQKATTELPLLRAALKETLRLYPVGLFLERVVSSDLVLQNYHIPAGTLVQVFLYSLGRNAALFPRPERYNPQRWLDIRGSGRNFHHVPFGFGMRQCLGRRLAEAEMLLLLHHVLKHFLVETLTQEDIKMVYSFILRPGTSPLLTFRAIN
Text: as §1, §2, §3, §4, §5, §6, §7

Sequence of human CYP11B1 (P15538 25-503): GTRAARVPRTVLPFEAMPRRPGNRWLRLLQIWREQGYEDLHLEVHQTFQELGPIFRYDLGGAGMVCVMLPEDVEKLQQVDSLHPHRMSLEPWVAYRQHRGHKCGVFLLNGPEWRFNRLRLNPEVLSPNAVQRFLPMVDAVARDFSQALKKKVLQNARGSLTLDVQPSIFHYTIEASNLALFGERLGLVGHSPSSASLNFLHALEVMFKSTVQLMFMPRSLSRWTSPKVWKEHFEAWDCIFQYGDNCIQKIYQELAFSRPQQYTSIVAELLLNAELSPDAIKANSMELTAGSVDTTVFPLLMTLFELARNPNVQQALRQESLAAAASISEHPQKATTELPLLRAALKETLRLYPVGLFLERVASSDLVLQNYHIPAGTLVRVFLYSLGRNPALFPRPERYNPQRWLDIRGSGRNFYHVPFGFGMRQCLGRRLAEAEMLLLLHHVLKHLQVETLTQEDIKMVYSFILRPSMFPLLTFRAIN

| Structure (SMILES) | EC50 [1] [nM] | EC50 [2] [nM] |
| --- | --- | --- |
| Cc1ncncc1C(=O)N1CC2(C1)CN(c1cncc(N3C(=O)c4ccc(Cl)cc4C3(C)C)c1)C2 [Example 29, 5-Chloro-3,3-dimethyl-2-[5-[2-(4-methylpyrimidine-5-carbonyl)-2,6-diazaspiro[3.3]heptan-6-yl]-3-pyridyl]isoindolin-1-one] | > 30 | 0.0748 |
| Cc1ccncc1C(=O)N1CC2(C1)CN(c1cncc(N3C(=O)c4ccc(Cl)cc4C34CC4)c1)C2 [Example 20, 5′-Chloro-2′-[5-[2-(4-methylpyridine-3-carbonyl)-2,6-diazaspiro[3.3]heptan-6-yl]-3-pyridyl]spiro[cyclopropane-1,3′-isoindoline]-1′-one] | 20 | 0.0195 |
| Cn1cncc1C(=O)N1CC2(C1)CN(c1cncc(N3C(=O)c4ccc(Cl)cc4C3(C)C)c1)C2 [Example 6, 5-Chloro-3,3-dimethyl-2-[5-[2-(3-methylimidazole-4-carbonyl)-2,6-diazaspiro[3.3]heptan-6-yl]-3-pyridyl]isoindolin-1-one] | 7.94 | 0.0117 |
| Cc1ccncc1C(=O)N1CC2(CCN(c3cncc(N4C(=O)c5ccc(Cl)cc5C4(C)C)c3)CC2)C1 [Example 61, 5-Chloro-3,3-dimethyl-2-[5-[2-(4-methylpyridine-3-carbonyl)-2,7-diazaspiro[3.5]nonan-7-yl]-3-pyridyl]isoindolin-1-one] | 2.11 | – |
| CCn1cc(C(=O)N2CC3(CCN(c4cncc(N5C(=O)c6ccc(Cl)cc6C5(C)C)c4)CC3)C2)cn1 [Example 60, 5-Chloro-2-[5-[2-(1-ethylpyrazole-4-carbonyl)-2,7-diazaspiro[3.5]nonan-7-yl]-3-pyridyl]-3,3-dimethyl-isoindolin-1-one] | 0.892 | – |
| Cc1cncc(C(=O)N2CC3(C2)CN(c2cncc(N4C(=O)c5ccc(Cl)cc5C4(C)C)c2)C3)n1 [Example 28, 5-Chloro-3,3-dimethyl-2-[5-[2-(6-methylpyrazine-2-carbonyl)-2,6-diazaspiro[3.3]heptan-6-yl]-3-pyridyl]isoindolin-1-one] | 0.64 | 0.0577 |
| Cn1cc(C(=O)N2CC3(C2)CN(c2cncc(N4C(=O)c5ccc(Cl)cc5C4(C)C)c2)C3)c(C(F)F)n1 [Example 35, 5-Chloro-2-[5-[2-[3-(difluoromethyl)-1-methyl-pyrazole-4-carbonyl]-2,6-diazaspiro[3.3]heptan-6-yl]-3-pyridyl]-3,3-dimethyl-isoindolin-1-one] | 29.5 | 0.333 |
| CC1(C)c2cc(Cl)ccc2C(=O)N1c1cncc(N2CC3(CN(C(=O)c4ncccn4)C3)C2)c1 [Example 33, 5-Chloro-3,3-dimethyl-2-[5-[2-(pyrimidine-2-carbonyl)-2,6-diazaspiro[3.3]heptan-6-yl]-3-pyridyl]isoindolin-1-one] | 1.75 | 0.0497 |
| Cn1cncc1C(=O)N1CC2(C1)CN(c1cncc(N3C(=O)c4ccc(C#N)cc4C3(C)C)c1)C2 [Example 13, 3,3-Dimethyl-2-[5-[2-(3-methylimidazole-4-carbonyl)-2,6-diazaspiro[3.3]heptan-6-yl]-3-pyridyl]-1-oxo-isoindoline-5-carbonitrile] | 26.4 | 0.0278 |
| CCn1cc(C(=O)N2CCC3(CC2)CN(c2cncc(N4C(=O)c5ccc(Cl)cc5C4(C)C)c2)C3)cn1 [Example 58, 5-Chloro-2-[5-[7-(1-ethylpyrazole-4-carbonyl)-2,7-diazaspiro[3.5]nonan-2-yl]-3-pyridyl]-3,3-dimethyl-isoindolin-1-one] | 9.64 | – |
| Cc1cc(C(=O)N2CC3(C2)CN(c2cncc(N4C(=O)c5ccc(Cl)cc5C4(C)C)c2)C3)n(C)n1 [Example 31, 5-Chloro-2-[5-[2-(2,5-dimethylpyrazole-3-carbonyl)-2,6-diazaspiro[3.3]heptan-6-yl]-3-pyridyl]-3,3-dimethyl-isoindolin-1-one] | 6.43 | 0.154 |
| Cc1ncnc(C)c1C(=O)N1CC2(C1)CN(c1cncc(N3C(=O)c4ccc(Cl)cc4C3(C)C)c1)C2 [Example 48, 5-Chloro-2-[5-[2-(4,6-dimethylpyrimidine-5-carbonyl)-2,6-diazaspiro[3.3]heptan-6-yl]-3-pyridyl]-3,3-dimethyl-isoindolin-1-one] | > 30 | 0.239 |
| COc1ccc2c(n1)C(C)(C)N(c1cncc(N3CC4(CN(C(=O)c5cnn(C)c5)C4)C3)c1)C2=O [Example 15, 2-Methoxy-7,7-dimethyl-6-[5-[2-(1-methylpyrazole-4-carbonyl)-2,6-diazaspiro[3.3]heptan-6-yl]-3-pyridyl]pyrrolo[3,4-b]pyridin-5-one] | 18.9 | 0.0205 |
| Cc1ccnc(C)c1C(=O)N1CC2(C1)CN(c1cncc(N3C(=O)c4ccc(Cl)cc4C3(C)C)c1)C2 [Example 49, 5-Chloro-2-[5-[2-(2,4-dimethylpyridine-3-carbonyl)-2,6-diazaspiro[3.3]heptan-6-yl]-3-pyridyl]-3,3-dimethyl-isoindolin-1-one] | 5.07 | 0.111 |
| Cc1ccncc1C(=O)N1CC2(C1)CN(c1cncc(N3C(=O)c4ccc(C#N)cc4C3(C)C)c1)C2 [Example 14, 3,3-Dimethyl-2-[5-[2-(4-methylpyridine-3-carbonyl)-2,6-diazaspiro[3.3]heptan-6-yl]-3-pyridyl]-1-oxo-isoindoline-5-carbonitrile] | 21 | 0.0407 |
| Cc1ncc(C(=O)N2CC3(C2)CN(c2cncc(N4C(=O)c5ccc(Cl)cc5C4(C)C)c2)C3)o1 [Example 43, 5-Chloro-3,3-dimethyl-2-[5-[2-(2-methyloxazole-5-carbonyl)-2,6-diazaspiro[3.3]heptan-6-yl]-3-pyridyl]isoindolin-1-one] | 18 | 0.018 |
| Cc1oncc1C(=O)N1CC2(C1)CN(c1cncc(N3C(=O)c4ccc(Cl)cc4C3(C)C)c1)C2 [Example 39, 5-Chloro-3,3-dimethyl-2-[5-[2-(5-methylisoxazole-4-carbonyl)-2,6-diazaspiro[3.3]heptan-6-yl]-3-pyridyl]isoindolin-1-one] | 9.68 | 0.0282 |
| Cc1ocnc1C(=O)N1CC2(C1)CN(c1cncc(N3C(=O)c4ccc(Cl)cc4C3(C)C)c1)C2 [Example 32, 5-Chloro-3,3-dimethyl-2-[5-[2-(5-methyloxazole-4-carbonyl)-2,6-diazaspiro[3.3]heptan-6-yl]-3-pyridyl]isoindolin-1-one] | 5.37 | 0.0149 |
| Cn1nccc1C(=O)N1CC2(C1)CN(c1cncc(N3C(=O)c4ccc(Cl)cc4C34CC4)c1)C2 [Example 21, 5′-Chloro-2′-[5-[2-(2-methylpyrazole-3-carbonyl)-2,6-diazaspiro[3.3]heptan-6-yl]-3-pyridyl]spiro[cyclopropane-1,3′-isoindoline]-1′-one] | > 30 | 0.293 |
| CC1(C)c2cc(Cl)ccc2C(=O)N1c1cncc(N2CC3(CN(C(=O)c4ncccc4C#N)C3)C2)c1 [Example 46, 2-[6-[5-(6-Chloro-1,1-dimethyl-3-oxo-isoindolin-2-yl)-3-pyridyl]-2,6-diazaspiro[3.3]heptane-2-carbonyl]pyridine-3-carbonitrile] | 3.86 | 0.0383 |
| CC(C)n1cc(C(=O)N2CC3(C2)CN(c2cncc(N4C(=O)c5ccc(C#N)cc5C4(C)C)c2)C3)cn1 [Example 10, 2-[5-[2-(1-Isopropylpyrazole-4-carbonyl)-2,6-diazaspiro[3.3]heptan-6-yl]-3-pyridyl]-3,3-dimethyl-1-oxo-isoindoline-5-carbonitrile] | 25.6 | 0.0155 |
| Cn1cc(C(=O)N2CCC3(CC2)CN(c2cncc(N4C(=O)c5ccc(Cl)cc5C4(C)C)c2)C3)cn1 [Example 56, 5-Chloro-3,3-dimethyl-2-[5-[7-(1-methylpyrazole-4-carbonyl)-2,7-diazaspiro[3.5]nonan-2-yl]-3-pyridyl]isoindolin-1-one] | 18.8 | – |
| Cn1cc(C(=O)N2CC3(CCN(c4cncc(N5C(=O)c6ccc(Cl)cc6C5(C)C)c4)CC3)C2)cn1 [Example 59, 5-Chloro-3,3-dimethyl-2-[5-[2-(1-methylpyrazole-4-carbonyl)-2,7-diazaspiro[3.5]nonan-7-yl]-3-pyridyl]isoindolin-1-one] | 0.819 | – |
